Experimental findings from article PMC3689638, “Cell cycle-dependent activity of the novel dual PI3K-MTORC1/2 inhibitor NVP-BGT226 in acute leukemia” (Molecular Cancer, 2013) are described below.

The assay relates to AKT phosphorylation (Ser473, Thr308). Kind of assay: western immunoblot of AKT signaling, MOLM14 or K562 cells. Format: cell-based, human. The source says:
For comparative analysis, additional lysates from cells treated with an ABL1 or FLT3 tyrosine kinase inhibitor (imatinib for K562 BCR-ABL1 cells, sunitinib for MOLM14 FLT3 ITD cells) as well as rapamycin were used.
Rabbit anti-panAKT, panFLT3, panABL1 or anti-cleaved caspase 3 antibodies were used at a 1:500 to 1:1000 dilution. Rabbit anti-phospho-AKT antibodies detecting phosphorylated isoforms of T308-AKT, S473-AKT, S807/811-RB, S575-ULK1, T389-p70S6K, Y694-STAT5, FLT3, ABL1 or T202/Y204-ERK1/2 were used at a 1:250 to 1:1000 dilution. An anti-actin mouse monoclonal antibody was used as a loading control. All antibodies, if not otherwise indicated, were purchased from Cell Signaling Technology.
Cell pellets were lysed with 100 to 150 μl of protein lysis buffer (50 mmol/L Tris, 150 mmol/L NaCl, 1% NP40, 0.25% deoxycholate with added inhibitors aprotinin, AEBSF, leupeptin, pepstatin, sodium orthovanadate, and sodium pyruvate, respectively phosphatase inhibitor cocktails „2“ and „1“ or „3“ (Sigma, St. Louis, MO). Protein from cell lysates (75 to 200 μg protein) was used for whole cell protein analysis after denaturing by Western immunoblot assays using a BioRad Criterion system. Nonspecific binding was blocked by incubating the blots in nonfat dry milk or BSA. Primary antibodies were incubated for one hour or over night, followed by several washes of Tris-buffered saline (TBS) containing 0.005% Tween 20. The appropriate secondary antibody was applied for 30‘, followed by several washes. Antibody-reactive proteins were detected using a LI-COR Odyssey® fluorescence optical system.

In the case of `CO[C@H]1C[C@@H]2CC[C@@H](C)[C@@](O)(O2)C(=O)C(=O)N2CCCC[C@H]2C(=O)O[C@H]([C@H](C)C[C@@H]2CC[C@@H](O)[C@H](OC)C2)CC(=O)[C@H](C)/C=C(\C)[C@@H](O)[C@@H](OC)C(=O)[C@H](C)C[C@H](C)/C=C/C=C/C=C/1C` [rapamycin], the “phosphorylation of AKT (immunoblot)” value is “did not suppress AKT phosphorylation”.
